{
  "source": "paper PMC4977651",
  "about": "“Molecular features of biguanides required for targeting of mitochondrial respiratory complex I and activation of AMP-kinase” (BMC Biology, 2016)",
  "key": {"[1]": {"test_system": "MDBK cells", "test": "Rotenone-sensitive oxygen consumption rate in intact MDBK cells", "format": "cell-based, Bos taurus", "set-up": "key to rotenone sensitive OCR after 40 mins of biguanide exposure / rotenone sensitive OCR after 40 mins of biguanide exposure, average: % of OCR recorded immediately before biguanide addition", "details": "biguanide at IC50/10", "description": "143B (CRL-8303 from ATCC), HepG2 (85011430 from The Health Protection Agency), and MDBK (CCL-22 from ATCC) cells were grown on Dulbecco’s modified Eagle’s medium (DMEM) supplemented with 10 % fetal bovine serum (FBS, Thermo Fisher Scientific) at 37 °C in 5 % CO2. All cells were confirmed as negative for mycoplasma.\nOxygen consumption rates (OCRs) were measured using a Seahorse XF96 extracellular flux analyzer at 37 °C. For intact cell measurements, 1.4 × 10^4 143B, HepG2, or MDBK cells were plated (per well) in DMEM containing 10 % FBS into Seahorse Bioscience Inc. XF96 plates and incubated for ~12 h at 37 °C in 5 % CO2. Then, the medium was exchanged for assay buffer containing DMEM, 4.5 g L^−1 glucose, 1 mM pyruvate, 32 mM NaCl, 2 mM GlutaMAX, 15 mg L^−1 phenol red, and 20 mM HEPES (pH 7.4 at 37 °C) and the cells placed in a CO2-free incubator at 37 °C for 30 min. Basal oxygen consumption rates were established before the addition of biguanides at one-tenth of their IC50 (IC50/10), and followed for ~ 6 h before the addition of rotenone (2 μM).\n(§1) Rotenone-sensitive OCRs were calculated by subtracting the rotenone-insensitive rates (determined at the end of the experiment). OCRs were normalized by dividing by the OCR recorded immediately prior to the addition of biguanide. For rate of uptake calculations, the OCRs at time points after biguanide addition were divided by the OCRs at the same time points in control experiments. Data from wells with failed port injections were excluded from the analyses. The respiratory control ratio (RCR) values (state III versus state IV respiration) were ~11 and ~6 for permeabilized MDBK and 143B cells, respectively."}, "[2]": {"test_system": "permeabilized MDBK cells", "test": "ADP-stimulated rotenone-sensitive OCR in permeabilized MDBK cells", "format": "cell-based, Bos taurus", "set-up": "rotenone sensitive OCR after ADP stimulation, average / rotenone sensitive OCR after ADP stimulation: unit not given here", "details": "MDBK permeabilised cells; for rotenone sensitive OCR after ADP stimulation, % of control, average / rotenone sensitive OCR after ADP stimulation, average: average of replicates", "description": "For permeabilized cell experiments, cells were seeded into XF96 plates at 0.9–1.1 × 10^4 per well and incubated for 48 h at 37 °C in 5 % CO2. Then, the growth medium was exchanged for assay buffer containing 3 nM plasma membrane permeabilizer ‘PMP’ (Seahorse Biosciences Inc.), 10 mM glutamate, 10 mM malate, 220 mM mannitol, 70 mM sucrose, 10 mM KH2PO4, 5 mM MgCl2, 1 mM EGTA, 0.2 % fatty acid-free bovine serum albumin (BSA), and 2 mM HEPES (pH 7.4 at 37 °C). […] The biguanides were allowed to accumulate for 30 min, then respiration was […] by the addition of 4 mM ADP. Rotenone was added (2 μM) at the end of the experiment.\nas §1"}, "[3]": {"test_system": "mouse liver mitochondria", "test": "ADP-stimulated rotenone-sensitive OCR in isolated mouse liver mitochondria", "format": "biochemical", "set-up": "rotenone sensitive OCR after ADP stimulation, individual replicates / rotenone sensitive OCR after ADP stimulation, average: unit not given here", "description": "Complex I and mitochondrial membranes were prepared from Bos taurus (bovine) heart. Intact mitochondria were isolated from rat liver and mouse heart and liver. Membranes were prepared from mouse heart mitochondria by 5 s bursts of sonication at 4 °C and collected by centrifugation (75,000 × g, 1 h).\nIsolated mitochondria were monitored using a Seahorse XF96 extracellular flux analyzer at 32 °C. Mouse heart mitochondria, and mouse and rat liver mitochondria were plated into XF96 plates at 4 and 16–20 μg per well, respectively, in 220 mM mannitol, 70 mM sucrose, 10 mM KH2PO4, 5 mM MgCl2, 1 mM EGTA, 0.2 % fatty acid-free BSA, and 2 mM HEPES (pH 7.4 at 37 °C) with 10 mM glutamate and 10 mM malate and adhered by centrifugation (2000 × g, 20 min, 4 °C). The medium was supplemented with a further 5 mM glutamate and 5 mM malate and the mitochondria incubated for 15 min. Then two baseline readings were taken before the biguanides were added at IC50/5. Biguanides were allowed to accumulate for 15–20 min before respiration was […] by the addition of 4 mM ADP. Rotenone (2 μM) was added at the end of the experiment. Data from wells with failed port injections were excluded from the analyses. The RCR values (state III versus state IV respiration) were 3.4, 4.8, and 4.6 for mouse heart, rat liver, and mouse liver, respectively."}, "[4]": {"test_system": "acetyl-coA carboxylase (phospho-Ser79)", "test": "AMPK activation, western blot of phospho-acetyl-coA carboxylase in MDBK cells", "format": "cell-based, Bos taurus", "details": "for p-ACC: band intensity", "description": "MDBK cells were seeded at 1 × 10^6 cells per 6 cm dish in DMEM containing 10 % FBS. […] After 18 h cells were harvested by a rapid lysis procedure: cells were rinsed with PBS, then lysed using ice-cold buffer containing 50 mM HEPES, 1 mM EDTA, 10 % glycerol, 50 mM NaF, 5 mM sodium pyrophosphate, 1 % Triton-X100, 1 mM dithiothreitol (DTT), and a protease inhibitor cocktail (Roche). The cell lysate was centrifuged at 14,000 × g for 20 min at 4 °C and the protein concentration of the supernatant determined by bicinchoninic acid assay. The lysate was analyzed using Novex 3–12 % bis-Tris gels run in 3-(N-morpholino)propanesulfonic acid (MOPS) buffer (20 μg of protein per lane) followed by transfer to low fluorescence polyvinylidene fluoride membranes by wet transfer. Primary rabbit antibodies for AMPK-β (57C12), AMPK-α (phospho-Thr172) (40H9), and acetyl-coA carboxylase (phospho-Ser79) (Cell Signaling Technology) were incubated overnight with the membrane (1:1000 dilution) in Odyssey blocking buffer at 4 °C. A fluorescent secondary antibody was used (IRDYE800CW from LI-COR Biosciences, 1:20,000 dilution) with a LI-COR Odyssey imaging system."}, "[5]": {"details": "MDBK intact cells, average of replicates"}, "[6]": {"details": "MDBK intact cells, individual replicates"}, "[7]": {"details": "individual replicates, biguanide at IC50/5"}},
  "note": "“And” between values parts separate entries of the source, which are not always exact repeats. Identical values can stand only once.",
  "data": [
    {"smiles": "[H]/N=C(\\N/C(=N/[H])Nc1ccc(Cl)cc1)NC(C)C", "note": "[proguanil, reference compound]", "values": [
      {"measurement": "rotenone sensitive OCR after 6 hours of biguanide exposure, % control, average", "setting": "[1]; MDBK cells", "value": 89.87, "unit": "% control"},
      {"measurement": "rotenone sensitive OCR after 6 hours of biguanide exposure, average", "setting": "[1]; MDBK cells, OCR normalized to OCR immediately prior to biguanide addition", "value": 90.15},
      {"measurement": "rotenone sensitive OCR after 40 mins of biguanide exposure, % control, average", "setting": "[1]; [5]", "value": 96.96, "unit": "% control"},
      {"measurement": "rotenone sensitive OCR after 40 mins of biguanide exposure, average", "setting": "[1]; [5]", "value": 98.65},
      {"measurement": "rotenone sensitive OCR after 40 mins of biguanide exposure", "setting": "[1]; [6]", "value": "102.33 and 100.74 (2×) and 97.32 and 96.18 and 94.63"},
      {"measurement": "rotenone sensitive OCR after 40 mins of biguanide exposure, % control", "setting": "[1]; [6]", "value": "100.56 % control and 99.00 % control and 99.01 % control and 95.64 % control and 94.52 % control and 93.00 % control"},
      {"measurement": "rotenone sensitive OCR after ADP stimulation, % of control, average", "setting": "[2]", "value": "105.17 % of control"},
      {"measurement": "rotenone sensitive OCR after ADP stimulation, average", "setting": "[2]", "value": 296.39},
      {"measurement": "rotenone sensitive OCR after ADP stimulation, % of control, average", "setting": "[2]; biguanide at IC50/5", "value": "105.17 % of control"},
      {"measurement": "rotenone sensitive OCR after ADP stimulation, average", "setting": "[2]; biguanide at IC50/5", "value": 296.39},
      {"measurement": "rotenone sensitive OCR after ADP stimulation", "setting": "[2]; [7]", "value": "272.71 and 215.77 and 253.06 and 330.67 and 409.72"},
      {"measurement": "rotenone sensitive OCR after ADP stimulation, % of control", "setting": "[2]; [7]", "value": "96.77 % of control and 76.56 % of control and 89.79 % of control and 117.34 % of control and 145.38 % of control"},
      {"measurement": "rotenone sensitive OCR after ADP stimulation, % of control, average", "setting": "[3]; average of replicates", "value": "89.71 % of control"},
      {"measurement": "rotenone sensitive OCR after ADP stimulation, average", "setting": "[3]; average of replicates", "value": 31.13},
      {"measurement": "rotenone sensitive OCR after ADP stimulation, % of control, individual replicates", "setting": "[3]; replicate 1-5", "value": "103.28 % of control and 81.19 % of control and 80.15 % of control and 94.21 % of control"},
      {"measurement": "rotenone sensitive OCR after ADP stimulation, individual replicates", "setting": "[3]; replicate 1-5", "value": "35.84 and 28.17 and 27.81 and 32.69"},
      {"measurement": "ACC, average normalised to control", "setting": "[4]; Averages of experiments 1-3, 18 hours", "value": 1.76},
      {"measurement": "p-ACC / AMPK beta", "setting": "[4]; Experiment 1, 18 hours", "value": 0.34},
      {"measurement": "p-ACC / AMPK beta normalised to control", "setting": "[4]; Experiment 1, 18 hours", "value": 1.73},
      {"measurement": "p-ACC", "setting": "[4]; Experiment 1, 18 hours", "value": 161},
      {"measurement": "p-ACC / AMPK beta", "setting": "[4]; Experiment 2, 18 hours", "value": 0.32},
      {"measurement": "p-ACC / AMPK beta normalised to control", "setting": "[4]; Experiment 2, 18 hours", "value": 1.97},
      {"measurement": "p-ACC", "setting": "[4]; Experiment 2, 18 hours", "value": 112},
      {"measurement": "p-ACC / AMPK beta", "setting": "[4]; Experiment 3, 18 hours", "value": 0.47},
      {"measurement": "p-ACC / AMPK beta normalised to control", "setting": "[4]; Experiment 3, 18 hours", "value": 1.56},
      {"measurement": "p-ACC", "setting": "[4]; Experiment 3, 18 hours", "value": 91.3}
    ]}
  ]
}
